Results taken from ChEMBL document CHEMBL4354883, “Design, Synthesis, and Biological Evaluation of HSP90 Inhibitor-SN38 Conjugates for Targeted Drug Accumulation” (J Med Chem, 2020).
Values belong to the compound of their own block, whether it stands above or below them. The source made the active and inactive calls. No cut-off for these calls is given here.

What was measured:
HCT-116 [1] = assay: Antitumor activity against human HCT116 cells xenografted in mouse assessed as reduction in tumor volume at 50 mg/kg, iv for 5 consecutive days per week and measured every 3 to 4 days up to 14 days by microcaliper analysis relative to control; format: functional
MIA PaCa-2 = assay: Antiproliferative activity against human MIAPaCa2 cells assessed as reduction in cell viability after 72 hrs by SRB assay; format: functional, cell-based; conditions: MIA PaCa-2, 72 h
Mus musculus [2] = species on record: Mus musculus; conditions: 28 mg/kg
Description: In vivo inhibition of HSP90 in mouse xenografted with human Capan1 cells assessed as decrease in AKT protein expression at 28 mg/kg, iv for every 2 days measured at 2 hrs post last dose by Western blot analysis

CAPAN-1 [3] = conditions: Homo sapiens, 28 mg/kg
Description: Antitumor activity against human Capan1 cells xenografted in mouse assessed as reduction in tumor weight at 28 mg/kg, iv for every 2 days and measured twice per week by caliper method

L02 = assay: Cytotoxicity agains human HL7702 cells assessed as reduction in cell viability after 72 hrs by SRB assay; format: cell-based; conditions: L02, 72 h
Mus musculus [4] = species on record: Mus musculus; conditions: 28 mg/kg; remark: listed apart in the source
Description: In vivo inhibition of HSP90 in mouse xenografted with human Capan1 cells assessed as increase in HSP70 protein expression at 28 mg/kg, iv for every 2 days measured at 2 hrs post last dose by Western blot analysis

CAPAN-1 [5] = assay: Antitumor activity against human Capan1 cells xenografted in mouse assessed as reduction in tumor volume at 28 mg/kg, iv for every 2 days and measured twice per week by microcaliper method relative to control; format: functional
HCT-116 [6] = assay: Antiproliferative activity against human HCT116 cells assessed as reduction in cell viability after 72 hrs by SRB assay; format: functional, cell-based; conditions: HCT-116, 72 h
A549 [7] = assay: Antiproliferative activity against human A549 cells assessed as reduction in cell viability after 72 hrs by SRB assay; format: functional, cell-based; conditions: A549, 72 h
HCT-116 [8] = conditions: Homo sapiens, 0.2 uM
Description: Downregulation of TOP1 expression in human HCT116 cells at 0.2 uM after 24 hrs by Western blot analysis

CAPAN-1 [9] = assay: Antiproliferative activity against human Capan1 cells assessed as reduction in cell viability after 72 hrs by SRB assay; format: functional, cell-based; conditions: CAPAN-1, 72 h
A549 [10] = conditions: Homo sapiens, 0.2 uM
Description: Downregulation of TOP1 expression in human A549 cells at 0.2 uM after 24 hrs by Western blot analysis

[11] = target: Heat shock protein HSP 90-alpha (Homo sapiens, UniProt P07900); assay: biochemical
Description: Inhibition of recombinant human full length HSP90 alpha expressed in Escherichia coli cells after 1 hr by fluorescence polarization assay

A549 [12] = assay: Ratio of prodrug release in human A549 cells assessed as increase in 7-ethyl-10-hydroxycamptothecin level at 5 uM after 12 hrs by LC-MS/MS analysis to prodrug release in human A549 cells assessed as increase in 7-ethyl-10-hydroxycamptothecin level at 5 uM after 1 hr by LC-MS/MS analysis; format: ADME, cell-based; conditions: a549, 5 µM
[13] = Half life in human liver microsomes at 1 uM preincubated for 5 mins followed by NADPH addition and measured up to 360 mins by LC-MS/MS analysis; format: ADME, Microsome
[14] = Apparent volume of distribution at steady state in BALB/c mouse at 50 mg/kg, iv after 5 to 24 hrs by LC-MS/MS analysis; format: ADME, organism-based; conditions: in vivo, read-out: Vdss(app)
[15] = Metabolic stability in human liver microsomes assessed as compound remaining at 1 uM preincubated for 5 mins followed by NADPH addition and measured after 60 mins by LC-MS/MS analysis; format: ADME, Microsome; conditions: read-out: Stability
Heat shock protein HSP90 [16] = target: T1, Heat shock protein HSP90 (Homo sapiens, UniProt P07900+P08238); assay: Inhibition of HSP90 in human HCT116 cells assessed as downregulation of AKT protein expression after 24 hrs by Western blot analysis; format: cell-based
[17] = Half life of compound in PBS buffer at pH 7.4 at 50 uM by HPLC analysis; format: physicochemical
[18] = Drug uptake in human A549 cells assessed as maximum emission peaks at 430 nm at 5 uM by fluorescence emission spectral analysis; format: ADME, cell-based; conditions: a549, 5 µM
[19] = AUC(0 to infinity) in BALB/c mouse at 50 mg/kg, iv after 5 to 24 hrs by LC-MS/MS analysis; format: ADME, organism-based; set-up: dose 50 mg/kg, route intravenous, time infinity; conditions: in vivo
[20] = Intrinsic clearance in human liver microsomes at 1 uM preincubated for 5 mins followed by NADPH addition and measured up to 360 mins by LC-MS/MS analysis; format: ADME, Microsome; conditions: 6 h
[21] = Clearance in BALB/c mouse at 50 mg/kg, iv after 5 to 24 hrs by LC-MS/MS analysis; format: ADME, organism-based; conditions: in vivo
[22] = target: T2, DNA topoisomerase 1 (Homo sapiens) (UniProt P11387); assay: Inhibition of topoisomerase 1 in human HCT116 cells assessed as increase in phosphorylated KAP1 expression after 24 hrs by Western blot analysis; format: cell-based
T2 sequence (whole entry): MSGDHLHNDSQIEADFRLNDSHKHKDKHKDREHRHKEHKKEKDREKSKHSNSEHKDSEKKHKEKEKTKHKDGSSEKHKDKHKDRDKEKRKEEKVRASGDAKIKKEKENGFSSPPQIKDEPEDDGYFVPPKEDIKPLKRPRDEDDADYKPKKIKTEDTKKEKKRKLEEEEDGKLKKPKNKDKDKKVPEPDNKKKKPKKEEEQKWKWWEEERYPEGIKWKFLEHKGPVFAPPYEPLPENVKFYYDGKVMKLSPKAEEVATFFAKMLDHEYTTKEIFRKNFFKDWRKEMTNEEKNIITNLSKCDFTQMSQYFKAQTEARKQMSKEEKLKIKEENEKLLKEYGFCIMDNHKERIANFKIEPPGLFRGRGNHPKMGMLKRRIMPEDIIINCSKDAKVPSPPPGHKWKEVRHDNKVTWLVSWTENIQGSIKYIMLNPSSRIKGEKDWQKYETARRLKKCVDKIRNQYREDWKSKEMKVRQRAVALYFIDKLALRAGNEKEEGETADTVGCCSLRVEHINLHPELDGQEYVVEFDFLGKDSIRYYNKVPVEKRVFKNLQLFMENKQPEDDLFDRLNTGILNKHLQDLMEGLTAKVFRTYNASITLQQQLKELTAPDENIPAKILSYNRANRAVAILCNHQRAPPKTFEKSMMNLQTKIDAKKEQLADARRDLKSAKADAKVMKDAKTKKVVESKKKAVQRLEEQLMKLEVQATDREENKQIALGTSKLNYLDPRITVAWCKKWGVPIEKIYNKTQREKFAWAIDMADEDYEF

A549 [23] = assay: Induction of cell cycle arrest in human A549 cells assessed as accumulation at G2/M phase after 24 hrs by RNase A/PI-staining based flow cytometric analysis; format: functional
A549 [24] = assay: Downregulation of TOP1 expression in human A549 cells after 24 hrs by Western blot analysis; format: functional, cell-based
[25] = target: T2, DNA topoisomerase 1 (Homo sapiens); assay: Inhibition of topoisomerase 1 in human A549 cells assessed as increase in phosphorylated KAP1 expression after 24 hrs by Western blot analysis; format: cell-based
HCT-116 [26] = assay: Induction of cell cycle arrest in human HCT116 cells assessed as accumulation at G2/M phase after 24 hrs by RNase A/PI-staining based flow cytometric analysis; format: functional
[27] = Half life in mouse plasma at 25 uM by HPLC analysis; format: ADME, cell-free
[28] = Drug uptake in human A549 cells assessed as endocytosis-mediated total cellular drug internalization at 5 uM after 12 hrs by LC-MS/MS analysis relative to SN38; format: ADME, cell-based; conditions: a549, 12 h
[29] = Half life in BALB/c mouse at 50 mg/kg, iv after 5 to 24 hrs by LC-MS/MS analysis; format: ADME, organism-based; conditions: in vivo
[30] = Drug uptake in human A549 cells assessed as eHSP90-mediated total cellular drug internalization at 5 uM after 12 hrs by LC-MS/MS analysis; format: ADME, cell-based; conditions: a549, 12 h
[31] = Drug uptake in human A549 cells assessed as blue shift in absorption spectrum at 5 uM by UV-visible absorption spectral analysis; format: ADME, cell-based; conditions: a549, 5 µM
[32] = Drug uptake in human A549 cells assessed as endocytosis-mediated total cellular drug internalization at 5 uM after 12 hrs by LC-MS/MS analysis relative to irinotecan; format: ADME, cell-based; conditions: a549, 12 h
[33] = Toxicity in mouse xenografted with human HCT116 cells assessed as body weight loss at 50 mg/kg, iv for 5 consecutive days per week and measured every 3 to 4 days up to 14 days relative to control; format: organism-based; conditions: in vivo
HCT-116 [34] = assay: Downregulation of TOP1 expression in human HCT116 cells after 24 hrs by Western blot analysis; format: functional, cell-based
Heat shock protein HSP90 [35] = target: T1, Heat shock protein HSP90; assay: Drug uptake in human A549 cells assessed as eHSP90-mediated drug internalization by measuring blue fluorescence in PBS solution at 5 uM after 1 to 12 hrs by confocal laser scanning microscopic analysis; format: ADME, cell-based; conditions: a549, 5 µM, TDE = time-dependent effect
CAPAN-1 [36] = assay: Induction of cell cycle arrest in human Capan1 cells assessed as accumulation at G2/M phase after 24 hrs by RNase A/PI-staining based flow cytometric analysis; format: functional
[37] = Half life of compound in PBS buffer at pH 6.0 at 50 uM by HPLC analysis; format: physicochemical
Heat shock protein HSP90 [38] = target: T1, Heat shock protein HSP90; assay: Inhibition of HSP90 in human A549 cells assessed as upregulation of HSP70 expression at 0.04 to 5 uM after 24 hrs by Western blot analysis; format: cell-based
Heat shock protein HSP90 [39] = target: T1, Heat shock protein HSP90; assay: Inhibition of HSP90 in human A549 cells assessed as downregulation of AKT protein expression after 24 hrs by Western blot analysis; format: cell-based
[40] = Drug uptake in human A549 cells assessed as blue fluorescence at 5 uM after 12 hrs by confocal laser scanning microscopic analysis; format: ADME, cell-based; conditions: a549, 12 h
[41] = Half life in human plasma at 25 uM by HPLC analysis; format: ADME, cell-free
Heat shock protein HSP90 [42] = target: T1, Heat shock protein HSP90; assay: Inhibition of HSP90 in human HCT116 cells assessed as upregulation of HSP70 expression at 0.04 to 5 uM after 24 hrs by Western blot analysis; format: cell-based

- IC50 (MIA PaCa-2): 38 nM
- IC50 (HCT-116 [6]): 121 nM
- IC50 (A549 [7]): 39 nM
Compound: CCNC(=O)c1noc(-c2cc(C(C)C)c(O)cc2O)c1-c1ccc(CN2CCOCC2)cc1 [LUMINESPIB]
- T/C (HCT-116 [1]): 49.9%
- inhibition (Mus musculus [2]): Active
- inhibition (CAPAN-1 [3]): Active
- IC50 (L02): 1360 nM
- inhibition (Mus musculus [4]): Active
- T/C (CAPAN-1 [5]): 57.03%
- inhibition (HCT-116 [8]): Active
- IC50 (CAPAN-1 [9]): 657 nM
- inhibition (A549 [10]): Active

- IC50 [11]: 38 nM
Compound: CC1(C)CC(=O)c2c(C(F)(F)F)nn(-c3ccc(C(N)=O)c(N[C@H]4CC[C@H](OC(=O)CN)CC4)c3)c2C1 [SNX 5422]

- Ratio (A549 [12]): 4.3
- half-life at 1 µM [13]: 2.4 h
- Vd [14]: 0.1 L/kg
- remaining at 1 h, 1 µM [15]: 75%
- inhibition (Heat shock protein HSP90 [16]): Dose-dependent effect
- half-life at 50 µM [17]: 14 h
- IC50 (MIA PaCa-2): 205 nM
- Drug uptake [18]: Active
- AUC(0-inf) [19]: 151 µg·h/mL
- CLH [20]: 5.3 mL/min/kg
- clearance [21]: 5.51 mL/min/kg
- inhibition [22]: Dose-dependent effect
- inhibition [25]: Dose-dependent effect
- half-life at 25 µM [27]: 17 h
- fold change (FC) [28]: 1.6 to 1.9
- half-life [29]: 1.51 h
- Drug uptake [30]: Active
- Drug uptake [31]: Active
- fold change (FC) [32]: 2.8 to 3.8
- IC50 (HCT-116 [6]): 83 nM
- IC50 (A549 [7]): 324 nM
- Drug uptake (Heat shock protein HSP90 [35]): Tde
- half-life at 50 µM [37]: > 24 h
- inhibition (Heat shock protein HSP90 [38]): Active
- inhibition (Heat shock protein HSP90 [39]): Dose-dependent effect
- IC50 [11]: 70 nM
- Drug uptake [40]: Active
- half-life at 25 µM [41]: > 24 h
- inhibition (Heat shock protein HSP90 [42]): Active
Compound: CCc1c2c(nc3ccc(O)cc13)-c1cc3c(c(=O)n1C2)COC(=O)[C@@]3(CC)OC(=O)CCNC(=O)c1noc(-c2cc(C(C)C)c(O)cc2O)c1-c1ccc(CN2CCOCC2)cc1
- Activity (A549 [23]): Dose-dependent effect
- TOP1 downregulation (A549 [24]): Dose-dependent effect
- Activity (HCT-116 [26]): Dose-dependent effect
- IC50 (L02): 7890 nM
- Activity [33]: < 20%
- inhibition (HCT-116 [34]): Dose-dependent effect
- Activity (CAPAN-1 [36]): Dose-dependent effect
- IC50 (CAPAN-1 [9]): 206 nM
